Measurements taken from US20160223554A1, “METHODS FOR DIAGNOSIS, PROGNOSIS AND METHODS OF TREATMENT” (priority 2011, published 2016).

Experiments:
Assay type in all cases: cell-based, human
AML blasts [1] = experiment: SCNP phospho-flow signaling nodes in AML PBMC (Example 2, Study No. 1); details: for Mean Value of CRs: CR patients; for Mean Value of CRs / Mean Value of NRs: Study No. 1; for Mean Value of NRs: NR patients
Description: Frozen cells are thawed in a 37° C. water bath and gently resuspended in the vial and transferred to the 15 mL conical tube. The 15 mL tube is centrifuged at 930 RPM (200×g) for 8 minutes at room temperature. The supernatant is aspirated and the pellet is gently resuspended in 1 mL media A. The cell suspension is filtered through a 70 um cell strainer into a new 15 mL tube. The cell strainer is rinsed with 1 mL media A and another 12 ml of media A into the 15 mL tube. The cells are mixed into an even suspension. A 20 μL aliquot is immediately removed into a 96-well plate containing 180 μL PBS+4% FBS+CD45 Alexa 700+PI to determine cell count and viability post spin. After the determination, the 15 mL tubes are centrifuged at 930 RPM (200×g) for 8 minutes at room temperature. The supernatant is aspirated and the cell pellet is gently resuspended in 4 mL PBS+4 μL Amine Aqua and incubated for 15 min in a 37° C. incubator. 10 mL RPMI+1% FBS is added to the cell suspension and the tube is inverted to mix the cells. The 15 mL tubes are centrifuged at 930 RPM (200×g) for 8 minutes at room temperature. The cells are resuspended in Media A at the desired cell concentration (1.25×10^6/mL). For samples with low numbers of cells (<18.5×10^6), the cells are resuspended in up to 15 mL media. For samples with high numbers of cells (>18.5×10^6), the volume is raised to 10 mL with media A and the desired volume is transferred to a new 15 mL tube, and the cell concentration is adjusted to 1.25×10^6 cells/ml. 1.6 mL of the above cell suspension (concentration at 1.25×10^6 cells/ml) is transferred into wells of a multi-well plate. From this plate, 80 ul is dispensed into each well of a subsequent plate. The plates are covered with a lid (Nunc) and placed in a 37° C. incubator for 2 hours to rest.
A concentration for each stimulant that is five folds more (5×) than the final concentration is prepared using Media A as diluent. 5× stimuli are arrayed into wells of a standard 96 well v-bottom plate that correspond to the wells on the plate with cells to be stimulated.
Adding the stimulant: The cell plate(s) are taken out of the incubator and placed in a 37° C. water bath next to the pipette apparatus. The cell plate is taken from the water bath and gently swirled to resuspend any settled cells. With pipettor, the stimulant is dispensed into the cell plate and vortexed at “7” for 5 seconds. The deep well plate is put back into the water bath.
The plate is covered with foil sealer and incubated in a 37° C. water bath for 10 minutes. The plate is spun for 6 minutes at 2000 rpm at room temperature. The cells are aspirated using a 96 well plate aspirator (VP Scientific). The plate is vortexed to resuspend cell pellets in the residual volume. The pellet is ensured to be dispersed before the Methanol step (see cell permeabilization) or clumping will occur.
Cell Permeabilization: Permeability agent, for example methanol, is added slowly and while the plate is vortexing. To do this, the cell plate is placed on titer plate shaker and made sure it is secure. The plate is set to shake using the highest setting. A pipetter is used to add 0.6 mls of 100% methanol to the plate wells. The plate(s) are put on ice until this step has been completed for all plates. Plates are covered with a foil seal using the plate roller to achieve a tight fit. At this stage the plates can be stored at −80° C.
Cells are thawed if frozen. Cells are pelleted at 2000 rpm 5 minutes. Supernatant is aspirated with vacuum aspirator. Plate is vortexed on a “plate vortex” for 5-10 seconds. Cells are washed with 1 mL FACS buffer. Repeat the spin, aspirate and vortex steps as above. 50 μL of FACS/stain buffer with the desired, previously optimized, antibody cocktail is added to two rows of cells at a time and agitate the plate. The plate is covered and incubated in a shaker for 30 minutes at room temperature (RT). During this incubation, the compensation plate is prepared.

AML blasts [2] = experiment: SCNP signaling and apoptosis nodes in AML BMMC (Example 4, Study No. 2); details: for Mean Value of CRs, p-Stat1 Fold / Mean Value of CRs, p-Stat3 Fold / Mean Value of CRs, p-Stat3 TotalPhospho / Mean Value of CRs, p-Stat5 Fold / Mean Value of NRs, p-Stat1 Fold / Mean Value of NRs, p-Stat3 Fold / Mean Value of NRs, p-Stat3 TotalPhospho / Mean Value of NRs, p-Stat5 Fold / Mean Value of CRs, p-Stat1 TotalPhospho / Mean Value of NRs, p-Stat1 TotalPhospho: Study No.2
AML blasts [3] = experiment: In vitro drug-induced apoptosis (c-PARP, amine aqua) in primary AML samples (Example 20); details: for cells induced to undergo apoptosis: sample COG-06 (MDR+); for cells induced to undergo apoptosis / cells undergoing apoptosis / apoptotic cells: 48 hours, CLO 0.25 μM, AZA 2.5 μM, DEC 0.625 μM; for Apo: sample COG-06, 48 hour treatment; for cells undergoing apoptosis: sample COG-07; for apoptotic cells: sample COG-09
Description: (§1) Cryopreserved peripheral blood (PBMC) or bone marrow (BMMC) mononuclear cells were obtained from patients with a new diagnosis of AML treated at British Columbia Cancer Agency or Lucile Packard Children's Hospital at Stanford University. All patients provided informed consent for research purposes. Samples were processed (thawed, modulated, fixed, permeabilized, and incubated with antibodies to both surface and intracellular proteins) as previously described (Kornblau, Minden et al., Dynamic single-cell network profiles in acute myelogenous leukemia are associated with patient response to standard induction therapy, 2010, Journal/Clin Cancer Res, 16, 14, 3721-3733; Rosen, Minden et al., Functional characterization of FLT3 receptor signaling deregulation in acute myeloid leukemia by single cell network profiling (SCNP), 2010, Journal/PLoS One, 5, 10, e13543). In this study, cellular DNA damage repair (DDR) and apoptosis were measured simultaneously in AML blasts after exposure to chemotherapeutic agents. Antibodies against phosphorylated (p)-H2AX or p-Chk2 were used to measure the DDR to DSB, while simultaneous measurements of cleaved PARP (c-PARP) and amine aqua viability dye were used to quantify apoptosis and cell death. Chemotherapeutics included Ara-C/Dauno (the two drugs currently used in standard AML induction therapy), Gemtuzumab Ozogamicin (GO), and three other agents currently being evaluated in AML clinical trials [Decitabine (DEC), 5-azacytidine (AZA) and Clofarabine (CLO)]. […] Drug-specific incubation times were chosen to analyze both DDR and apoptosis readouts: Ara-C/Dauno (24 hours), GO, CLO, AZA, DEC (48 hours). […] Similarly, apoptosis responses were not observed for DEC until 48 hours and were higher for AZA at 48 hours (data not shown). PI3Kinase/Akt and Raf/Ras pathway activities were assessed using stem cell factor (SCF) induced p-Akt and p-Erk readouts. Data was acquired on an LSRII flow cytometer and leukemic cells were identified by CD45 versus right-angle light-scatter. Metrics for DDR (Log2Fold) and induced apoptosis have been described previously (Rosen, Putta et al., Distinct patterns of DNA damage response and apoptosis correlate with Jak/Stat and PI3kinase response profiles in human acute myelogenous leukemia, 2010, Journal/PLoS One, 5, 8, e12405).

AML blasts [4] = experiment: DNA damage response (p-H2AX, p-Chk2) to chemotherapeutics in primary AML samples (Example 20); details: for DDR: pH2AX, 48 hour treatment
Description: as §1

[5] = Total Phospho metric, Study No. 1, CRp patient included in NR group
[6] = read-out p-CREB, metric TotalPhospho
[7] = read-out p-Stat3, metric TotalPhospho
[8] = Fold metric, all patients, Study No. 2
[9] = patients less than 60 years old
[10] = TotalPhospho metric, all patients, Study No. 2
[11] = Fold metric, Study No. 1, CRp patient included in NR group

IL-6: cytokine modulator
Mean Value of CRs, p-CREB (AML blasts [1]; [5]): 1.58 | Mean Value of CRs, p-Stat3 (AML blasts [1]; [5]): 1.08 | Mean Value of NRs, p-CREB (AML blasts [1]; [5]): 2.44 | Mean Value of NRs, p-Stat3 (AML blasts [1]; [5]): 1.81 | Mean Value of CRs (AML blasts [1]; [6]): 1.70 | Mean Value of NRs (AML blasts [1]; [6]): 2.43 | Mean Value of CRs (AML blasts [1]; [7]): 1.08 | Mean Value of NRs (AML blasts [1]; [7]): 1.84 | Mean Value of CRs, p-Stat1 (AML blasts [2]; [8]): −0.01 | Mean Value of CRs, p-Stat3 (AML blasts [2]; [8]): 0.12 | Mean Value of CRs, p-Stat5 (AML blasts [2]; [8]): 0.13 | Mean Value of NRs, p-Stat1 (AML blasts [2]; [8]): 0.26 | Mean Value of NRs, p-Stat3 (AML blasts [2]; [8]): 1.09 | Mean Value of NRs, p-Stat5 (AML blasts [2]; [8]): 0.55 | Mean Value of CRs, p-Stat1 Fold (AML blasts [2]; [9]): −0.02 | Mean Value of CRs, p-Stat3 Fold (AML blasts [2]; [9]): 0.13 | Mean Value of CRs, p-Stat3 TotalPhospho (AML blasts [2]; [9]): 1.77 | Mean Value of CRs, p-Stat5 Fold (AML blasts [2]; [9]): 0.11 | Mean Value of NRs, p-Stat1 Fold (AML blasts [2]; [9]): 0.3 | Mean Value of NRs, p-Stat3 Fold (AML blasts [2]; [9]): 1.67 | Mean Value of NRs, p-Stat3 TotalPhospho (AML blasts [2]; [9]): 4.10 | Mean Value of NRs, p-Stat5 Fold (AML blasts [2]; [9]): 0.58 | Mean Value of CRs, p-Stat1 Fold (AML blasts [2]; patients with De Novo AML): 0.00 | Mean Value of CRs, p-Stat1 TotalPhospho (AML blasts [2]; patients with De Novo AML): 1.06 | Mean Value of CRs, p-Stat3 TotalPhospho (AML blasts [2]; patients with De Novo AML): 1.7 | Mean Value of CRs, p-Stat5 Fold (AML blasts [2]; patients with De Novo AML): 0.12 | Mean Value of NRs, p-Stat1 Fold (AML blasts [2]; patients with De Novo AML): 0.19 | Mean Value of NRs, p-Stat1 TotalPhospho (AML blasts [2]; patients with De Novo AML): 1.67 | Mean Value of NRs, p-Stat3 TotalPhospho (AML blasts [2]; patients with De Novo AML): 3.22 | Mean Value of NRs, p-Stat5 Fold (AML blasts [2]; patients with De Novo AML): 0.47 | Mean Value of CRs, p-Stat3 (AML blasts [2]; [10]): 1.76 | Mean Value of NRs, p-Stat3 (AML blasts [2]; [10]): 2.98

Nc1ncn([C@H]2C[C@H](O)[C@@H](CO)O2)c(=O)n1 [DEC]
cells induced to undergo apoptosis (AML blasts [3]): 55.8% | Apo (AML blasts [3]): + (For Apo, “+” signifies induced apoptosis >50%.) | cells undergoing apoptosis (AML blasts [3]): 29% | apoptotic cells (AML blasts [3]): 5%

Nc1nc(Cl)nc2c1ncn2[C@@H]1O[C@H](CO)[C@@H](O)[C@@H]1F [CLO]
timing of induced DNA damage (pH2AX) relative to apoptosis (AML blasts [4]; primary AML samples): before apoptosis | DNA damage response (DDR) (AML blasts [4]; sample COG-06): robust DDR | DDR (AML blasts [4]; sample COG-06): + (For DDR, “+” signifies Log2Fold >0.5 (in live cPARP- cells).) | DNA damage response (DDR) (AML blasts [4]; sample COG-07): defective DDR | DNA damage response (DDR) (AML blasts [4]; sample COG-09): robust DDR | DDR (AML blasts [4]; sample COG-09): + (For DDR, “+” signifies Log2Fold >0.5 (in live cPARP- cells).) | cells induced to undergo apoptosis (AML blasts [3]): 81% | Apo (AML blasts [3]): + (For Apo, “+” signifies induced apoptosis >50%.) | cells undergoing apoptosis (AML blasts [3]): 20% | apoptotic cells (AML blasts [3]): 13%

B1: IFNg: cytokine modulator of Jak/Stat pathway (protein, UniProt P01579 24-161, looked up)
Interferon gamma: QDPYVKEAENLKKYFNAGHSDVADNGTLFLGILKNWKEESDRKIMQSQIVSFYFKLFKNFKDDQSIQKSVETIKEDMNVKFFNSNKKKRDDFEKLTNYSVTDLNVQRKAIHELIQVMAELSPAAKTGKRKRSQMLFRG
Mean Value of CRs, p-Stat1 (AML blasts [1]; [11]): 0.45 | Mean Value of NRs, p-Stat1 (AML blasts [1]; [11]): 0.91 | Mean Value of CRs, p-Stat1 (AML blasts [1]; [5]): 0.67 | Mean Value of CRs, p-Stat3 (AML blasts [1]; [5]): 0.68 | Mean Value of CRs, p-Stat5 (AML blasts [1]; [5]): 1.62 | Mean Value of NRs, p-Stat1 (AML blasts [1]; [5]): 1.27 | Mean Value of NRs, p-Stat3 (AML blasts [1]; [5]): 1.3 | Mean Value of NRs, p-Stat5 (AML blasts [1]; [5]): 2.35 | Mean Value of CRs (AML blasts [1]; read-out p-Stat1, metric Fold): 0.53 | Mean Value of NRs (AML blasts [1]; read-out p-Stat1, metric Fold): 0.90 | Mean Value of CRs (AML blasts [1]; [7]): 0.74 | Mean Value of NRs (AML blasts [1]; [7]): 1.30 | Mean Value of CRs, p-Stag (AML blasts [2]; [8]): −0.02 | Mean Value of NRs, p-Stag (AML blasts [2]; [8]): 0.2 | Mean Value of CRs, p-Stat1 Fold (AML blasts [2]; [9]): 1.35 | Mean Value of CRs, p-Stat1 TotalPhospho (AML blasts [2]; [9]): 2.40 | Mean Value of CRs, p-Stat3 TotalPhospho (AML blasts [2]; [9]): 1.60 | Mean Value of CRs, p-Stat5 Fold (AML blasts [2]; [9]): 0.68 | Mean Value of NRs, p-Stat1 Fold (AML blasts [2]; [9]): 2.96 | Mean Value of NRs, p-Stat1 TotalPhospho (AML blasts [2]; [9]): 4.13 | Mean Value of NRs, p-Stat3 TotalPhospho (AML blasts [2]; [9]): 2.71 | Mean Value of NRs, p-Stat5 Fold (AML blasts [2]; [9]): 1.67 | Mean Value of CRs, p-Stat3 Fold (AML blasts [2]; patients with De Novo AML): −0.04 | Mean Value of CRs, p-Stat3 TotalPhospho (AML blasts [2]; patients with De Novo AML): 1.59 | Mean Value of NRs, p-Stat3 Fold (AML blasts [2]; patients with De Novo AML): 0.24 | Mean Value of NRs, p-Stat3 TotalPhospho (AML blasts [2]; patients with De Novo AML): 2.48
